Reference: US9340590B2 (priority 2011, dated 2016)
Positions of bridges follow the written chain, without caps; N, C: chain ends. Residues, ends and D or L forms follow the SMILES beside them.

Tests used:
Assay in all cases: cell-based
[1] = biological target: hNav1.3 (Homo sapiens, UniProt Q9NY46); settings: IonWorks Quattro; clamped to −110 mV, depolarized to −10 mV, 5 min after compound; n=2; read-out: IWQ Use Nav1.3
[2] = biological target: hNav1.5 (Homo sapiens, UniProt Q14524); settings: IonWorks Quattro; clamped to −110 mV, depolarized to −10 mV, 5 min after compound; n=2; read-out: IWQ Use Nav1.5
[3] = biological target: hNav1.7 (Homo sapiens, UniProt Q15858); format: cell-based; settings: IonWorks Quattro; clamped to −110 mV, depolarized to −10 mV, 5 min after compound; n=2; read-out: IWQ Use Nav1.7
hNav1.7, sequence (Q15858 whole entry, looked up): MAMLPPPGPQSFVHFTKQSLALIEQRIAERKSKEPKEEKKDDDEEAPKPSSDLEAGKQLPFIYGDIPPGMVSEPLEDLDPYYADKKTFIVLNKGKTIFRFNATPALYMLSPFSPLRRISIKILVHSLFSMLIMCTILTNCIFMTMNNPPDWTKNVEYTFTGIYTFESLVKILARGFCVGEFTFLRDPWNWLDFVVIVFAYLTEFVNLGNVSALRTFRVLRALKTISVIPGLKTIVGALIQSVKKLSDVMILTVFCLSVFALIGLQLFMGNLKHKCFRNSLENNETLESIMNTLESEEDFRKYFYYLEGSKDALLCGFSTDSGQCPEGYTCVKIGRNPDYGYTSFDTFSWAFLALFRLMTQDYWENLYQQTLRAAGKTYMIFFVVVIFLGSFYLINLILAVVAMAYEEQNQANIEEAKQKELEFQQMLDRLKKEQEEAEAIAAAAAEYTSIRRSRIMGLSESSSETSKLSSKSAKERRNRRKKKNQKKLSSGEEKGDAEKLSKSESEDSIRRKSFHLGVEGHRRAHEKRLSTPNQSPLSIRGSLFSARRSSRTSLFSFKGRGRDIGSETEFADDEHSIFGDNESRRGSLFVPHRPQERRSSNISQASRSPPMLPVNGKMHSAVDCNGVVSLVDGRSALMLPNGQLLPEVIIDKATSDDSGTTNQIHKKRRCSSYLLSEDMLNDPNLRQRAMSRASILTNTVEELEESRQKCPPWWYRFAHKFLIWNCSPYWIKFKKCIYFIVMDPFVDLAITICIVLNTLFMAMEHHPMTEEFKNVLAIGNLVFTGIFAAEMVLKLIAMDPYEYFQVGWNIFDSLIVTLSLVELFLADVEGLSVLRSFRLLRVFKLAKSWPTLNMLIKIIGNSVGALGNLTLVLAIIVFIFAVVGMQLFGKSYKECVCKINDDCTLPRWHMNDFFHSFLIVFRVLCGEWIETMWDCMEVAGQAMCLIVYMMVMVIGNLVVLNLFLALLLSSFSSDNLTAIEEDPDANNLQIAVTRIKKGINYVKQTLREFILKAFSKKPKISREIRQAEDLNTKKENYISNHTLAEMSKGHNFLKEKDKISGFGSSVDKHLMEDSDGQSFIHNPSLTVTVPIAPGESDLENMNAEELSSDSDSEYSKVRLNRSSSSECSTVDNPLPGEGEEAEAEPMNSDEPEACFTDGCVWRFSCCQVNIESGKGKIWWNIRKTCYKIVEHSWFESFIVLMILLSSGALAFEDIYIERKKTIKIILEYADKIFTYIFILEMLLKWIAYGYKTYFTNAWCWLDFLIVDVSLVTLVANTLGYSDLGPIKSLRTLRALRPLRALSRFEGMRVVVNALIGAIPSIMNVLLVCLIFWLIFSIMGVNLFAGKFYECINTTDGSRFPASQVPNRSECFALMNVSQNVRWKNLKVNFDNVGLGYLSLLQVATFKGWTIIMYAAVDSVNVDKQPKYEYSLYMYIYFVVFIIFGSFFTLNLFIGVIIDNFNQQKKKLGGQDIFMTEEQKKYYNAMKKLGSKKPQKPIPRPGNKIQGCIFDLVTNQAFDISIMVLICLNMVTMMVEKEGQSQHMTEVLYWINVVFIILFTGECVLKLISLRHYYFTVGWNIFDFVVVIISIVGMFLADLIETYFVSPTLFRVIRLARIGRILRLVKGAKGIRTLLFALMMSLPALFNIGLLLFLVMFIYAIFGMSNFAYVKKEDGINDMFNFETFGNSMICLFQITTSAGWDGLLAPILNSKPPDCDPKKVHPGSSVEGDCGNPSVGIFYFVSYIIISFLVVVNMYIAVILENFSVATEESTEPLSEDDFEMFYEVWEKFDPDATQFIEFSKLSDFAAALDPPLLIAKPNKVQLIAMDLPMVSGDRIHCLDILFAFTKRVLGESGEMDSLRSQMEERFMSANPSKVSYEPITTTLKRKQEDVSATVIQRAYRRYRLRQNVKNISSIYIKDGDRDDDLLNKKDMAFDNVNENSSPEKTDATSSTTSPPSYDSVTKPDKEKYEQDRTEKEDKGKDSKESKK

hNav1.3, sequence (Q9NY46 whole entry, looked up): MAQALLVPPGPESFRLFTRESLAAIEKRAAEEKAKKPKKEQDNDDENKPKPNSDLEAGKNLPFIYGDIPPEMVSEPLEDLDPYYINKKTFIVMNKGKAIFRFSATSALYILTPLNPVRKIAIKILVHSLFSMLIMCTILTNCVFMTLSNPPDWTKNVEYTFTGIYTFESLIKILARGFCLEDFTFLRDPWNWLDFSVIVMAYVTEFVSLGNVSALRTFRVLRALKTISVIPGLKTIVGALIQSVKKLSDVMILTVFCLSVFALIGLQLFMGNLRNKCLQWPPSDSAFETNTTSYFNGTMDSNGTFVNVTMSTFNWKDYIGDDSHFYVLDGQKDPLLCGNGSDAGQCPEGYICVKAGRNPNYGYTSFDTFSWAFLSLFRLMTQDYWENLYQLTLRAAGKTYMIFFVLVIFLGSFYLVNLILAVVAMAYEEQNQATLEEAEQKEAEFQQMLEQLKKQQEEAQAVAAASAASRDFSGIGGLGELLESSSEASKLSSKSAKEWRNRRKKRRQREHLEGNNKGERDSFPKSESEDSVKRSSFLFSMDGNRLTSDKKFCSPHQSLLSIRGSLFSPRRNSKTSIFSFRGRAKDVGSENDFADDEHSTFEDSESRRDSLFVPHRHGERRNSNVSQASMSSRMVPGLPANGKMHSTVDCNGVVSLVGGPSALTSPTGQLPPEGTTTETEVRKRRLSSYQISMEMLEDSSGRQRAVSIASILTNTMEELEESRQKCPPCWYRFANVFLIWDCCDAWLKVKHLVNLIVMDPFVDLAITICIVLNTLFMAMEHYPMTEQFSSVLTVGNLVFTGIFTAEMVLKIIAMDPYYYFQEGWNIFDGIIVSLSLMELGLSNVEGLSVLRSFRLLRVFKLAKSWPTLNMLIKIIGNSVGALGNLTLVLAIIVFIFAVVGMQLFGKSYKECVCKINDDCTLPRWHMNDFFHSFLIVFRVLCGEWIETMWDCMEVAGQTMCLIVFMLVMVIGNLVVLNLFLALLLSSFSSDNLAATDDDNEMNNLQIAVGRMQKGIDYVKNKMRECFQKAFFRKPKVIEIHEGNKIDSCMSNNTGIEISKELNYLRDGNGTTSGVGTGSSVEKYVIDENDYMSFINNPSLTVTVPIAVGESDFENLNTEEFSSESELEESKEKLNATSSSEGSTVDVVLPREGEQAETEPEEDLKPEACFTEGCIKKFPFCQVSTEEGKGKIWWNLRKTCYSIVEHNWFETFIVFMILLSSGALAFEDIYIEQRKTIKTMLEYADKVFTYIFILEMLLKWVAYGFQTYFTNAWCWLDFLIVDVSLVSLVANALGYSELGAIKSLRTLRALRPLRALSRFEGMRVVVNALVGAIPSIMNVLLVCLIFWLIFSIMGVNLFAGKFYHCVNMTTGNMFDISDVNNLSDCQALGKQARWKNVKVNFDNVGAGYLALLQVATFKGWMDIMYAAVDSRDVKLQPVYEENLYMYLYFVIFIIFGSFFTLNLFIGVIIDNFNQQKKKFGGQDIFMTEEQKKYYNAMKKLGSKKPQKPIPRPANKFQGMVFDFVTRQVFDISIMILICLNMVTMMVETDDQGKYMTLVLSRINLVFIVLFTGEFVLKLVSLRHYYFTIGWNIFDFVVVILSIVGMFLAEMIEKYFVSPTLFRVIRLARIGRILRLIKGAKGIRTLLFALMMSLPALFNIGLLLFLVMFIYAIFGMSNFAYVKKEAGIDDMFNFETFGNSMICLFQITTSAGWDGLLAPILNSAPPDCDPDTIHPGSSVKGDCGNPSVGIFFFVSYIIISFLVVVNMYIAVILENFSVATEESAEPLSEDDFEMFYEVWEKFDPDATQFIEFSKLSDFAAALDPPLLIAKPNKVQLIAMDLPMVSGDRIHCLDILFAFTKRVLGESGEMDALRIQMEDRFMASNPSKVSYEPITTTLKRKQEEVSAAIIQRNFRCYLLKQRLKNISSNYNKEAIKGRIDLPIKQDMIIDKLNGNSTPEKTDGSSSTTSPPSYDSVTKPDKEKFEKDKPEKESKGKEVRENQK

SMILES | IC50 [1] | IC50 [2] | IC50 [3]
CC[C@H](C)[C@@H]1NC(=O)[C@@H]2CSSC[C@@H]3NC(=O)[C@H](C(C)C)NC(=O)[C@H](CC(C)C)NC(=O)[C@H](CC(N)=O)NC(=O)[C@@H]4CCCN4C(=O)[C@H](CCCNC(=N)N)NC(=O)[C@H](CSSC[C@H](NC(=O)[C@@H](N)CC(=O)O)C(=O)N[C@@H](CC(C)C)C(=O)NCC(=O)N[C@@H](Cc4ccccc4)C(=O)N[C@@H](C(C)C)C(=O)N[C@@H](CCCNC(=N)N)C(=O)N[C@@H](CCCCN)C(=O)N2)NC(=O)[C@H](CSSC[C@@H](C(=O)N[C@@H](CCCCN)C(=O)N[C@@H](Cc2ccc(O)cc2)C(=O)N[C@H](C(=O)N[C@@H](Cc2ccccc2)C(N)=O)C(C)C)NC(=O)[C@H](Cc2c[nH]c4ccccc24)NC(=O)[C@H](CCCCN)NC(=O)[C@H](Cc2c[nH]cn2)NC(=O)[C@H]([C@@H](C)O)NC(=O)[C@H](CCCNC(=N)N)NC(=O)[C@H](CO)NC3=O)NC(=O)[C@H](CCCCN)NC(=O)[C@H](CC(=O)O)NC(=O)[C@H](CC(N)=O)NC(=O)[C@H](CC(=O)O)NC(=O)[C@@H]2CCCN2C1=O [SEQ ID NO: 287] (H-DCLGFVRKCIPDNDKCCRPNLVCSRTHKWCKYVF-NH2; disulfide 2-17, 9-23, 16-30) | 80 nM | 9230 nM | 90 nM
CC[C@H](C)[C@@H]1NC(=O)[C@@H]2CSSC[C@@H]3NC(=O)[C@H](C(C)C)NC(=O)[C@H](CC(C)C)NC(=O)[C@H](CC(N)=O)NC(=O)[C@@H]4CCCN4C(=O)[C@H](CCCNC(=N)N)NC(=O)[C@H](CSSC[C@H](NC(=O)[C@@H](N)CC(=O)O)C(=O)N[C@@H](CC(C)C)C(=O)NCC(=O)N[C@@H](Cc4ccccc4)C(=O)N[C@@H](c4ccccc4)C(=O)N[C@@H](CCCNC(=N)N)C(=O)N[C@@H](CCCCN)C(=O)N2)NC(=O)[C@H](CSSC[C@@H](C(=O)N[C@@H](CCCCN)C(=O)N[C@@H](Cc2ccc(O)cc2)C(=O)N[C@H](C(=O)N[C@@H](Cc2ccccc2)C(N)=O)C(C)C)NC(=O)[C@H](Cc2c[nH]c4ccccc24)NC(=O)[C@H](CCCCN)NC(=O)[C@H](Cc2c[nH]cn2)NC(=O)[C@H]([C@@H](C)O)NC(=O)[C@H](CCCNC(=N)N)NC(=O)[C@H](CO)NC3=O)NC(=O)[C@H](CCCCN)NC(=O)[C@H](CC(=O)O)NC(=O)[C@H](CC(N)=O)NC(=O)[C@H](CC(=O)O)NC(=O)[C@@H]2CCCN2C1=O [SEQ ID NO: 288] | 90 nM | > 5000 nM | 150 nM
CC[C@H](C)[C@@H]1NC(=O)[C@@H]2CSSC[C@@H]3NC(=O)[C@H](C(C)C)NC(=O)[C@H](CC(C)C)NC(=O)[C@H](CC(N)=O)NC(=O)[C@@H]4CCCN4C(=O)[C@H](CCCNC(=N)N)NC(=O)[C@H](CSSC[C@H](NC(=O)[C@@H](N)CC(=O)O)C(=O)N[C@@H](CC(C)C)C(=O)NCC(=O)N[C@@H](Cc4ccccc4)C(=O)N(C)[C@@H](Cc4c[nH]c5ccccc45)C(=O)N[C@@H](CCCNC(=N)N)C(=O)N[C@@H](CCCCN)C(=O)N2)NC(=O)[C@H](CSSC[C@@H](C(=O)N[C@@H](CCCCN)C(=O)N[C@@H](Cc2ccc(O)cc2)C(=O)N[C@H](C(=O)N[C@@H](Cc2ccccc2)C(N)=O)C(C)C)NC(=O)[C@H](Cc2c[nH]c4ccccc24)NC(=O)[C@H](CCCCN)NC(=O)[C@H](Cc2c[nH]cn2)NC(=O)[C@H]([C@@H](C)O)NC(=O)[C@H](CCCNC(=N)N)NC(=O)[C@H](CO)NC3=O)NC(=O)[C@H](CCCCN)NC(=O)[C@H](CC(=O)O)NC(=O)[C@H](CC(N)=O)NC(=O)[C@H](CC(=O)O)NC(=O)[C@@H]2CCCN2C1=O [SEQ ID NO: 289] | 240 nM | 21400 nM | 140 nM
CC[C@H](C)[C@@H]1NC(=O)[C@@H]2CSSC[C@@H]3NC(=O)[C@H](C(C)C)NC(=O)[C@H](CC(C)C)NC(=O)[C@H](CC(N)=O)NC(=O)[C@@H]4CCCN4C(=O)[C@H](CCCNC(=N)N)NC(=O)[C@H](CSSC[C@H](NC(=O)[C@@H](N)CC(=O)O)C(=O)N[C@@H](CC(C)C)C(=O)NCC(=O)N[C@@H](Cc4ccccc4)C(=O)N(C)[C@@H](Cc4ccccc4)C(=O)N[C@@H](CCCNC(=N)N)C(=O)N[C@@H](CCCCN)C(=O)N2)NC(=O)[C@H](CSSC[C@@H](C(=O)N[C@@H](CCCCN)C(=O)N[C@@H](Cc2ccc(O)cc2)C(=O)N[C@H](C(=O)N[C@@H](Cc2ccccc2)C(N)=O)C(C)C)NC(=O)[C@H](Cc2c[nH]c4ccccc24)NC(=O)[C@H](CCCCN)NC(=O)[C@H](Cc2c[nH]cn2)NC(=O)[C@H]([C@@H](C)O)NC(=O)[C@H](CCCNC(=N)N)NC(=O)[C@H](CO)NC3=O)NC(=O)[C@H](CCCCN)NC(=O)[C@H](CC(=O)O)NC(=O)[C@H](CC(N)=O)NC(=O)[C@H](CC(=O)O)NC(=O)[C@@H]2CCCN2C1=O [SEQ ID NO: 290] | 140 nM | 10600 nM | 240 nM
CC[C@H](C)[C@@H]1NC(=O)[C@@H]2CSSC[C@@H]3NC(=O)[C@H](C(C)C)NC(=O)[C@H](CC(C)C)NC(=O)[C@H](CC(N)=O)NC(=O)[C@@H]4CCCN4C(=O)[C@H](CCCNC(=N)N)NC(=O)[C@H](CSSC[C@H](NC(=O)[C@@H](N)CC(=O)O)C(=O)N[C@@H](CC(C)C)C(=O)NCC(=O)N[C@@H](Cc4ccccc4)C(=O)N[C@@H](Cc4cn(C)c5ccccc45)C(=O)N[C@@H](CCCNC(=N)N)C(=O)N[C@@H](CCCCN)C(=O)N2)NC(=O)[C@H](CSSC[C@@H](C(=O)N[C@@H](CCCCN)C(=O)N[C@@H](Cc2ccc(O)cc2)C(=O)N[C@H](C(=O)N[C@@H](Cc2ccccc2)C(N)=O)C(C)C)NC(=O)[C@H](Cc2c[nH]c4ccccc24)NC(=O)[C@H](CCCCN)NC(=O)[C@H](Cc2c[nH]cn2)NC(=O)[C@H]([C@@H](C)O)NC(=O)[C@H](CCCNC(=N)N)NC(=O)[C@H](CO)NC3=O)NC(=O)[C@H](CCCCN)NC(=O)[C@H](CC(=O)O)NC(=O)[C@H](CC(N)=O)NC(=O)[C@H](CC(=O)O)NC(=O)[C@@H]2CCCN2C1=O [SEQ ID NO: 292] | 30 nM | 5660 nM | 40 nM
CC[C@H](C)[C@@H]1NC(=O)[C@@H]2CSSC[C@@H]3NC(=O)[C@H](C(C)C)NC(=O)[C@H](CC(C)C)NC(=O)[C@H](CC(N)=O)NC(=O)[C@@H]4CCCN4C(=O)[C@H](CCCNC(=N)N)NC(=O)[C@H](CSSC[C@H](NC(=O)[C@@H](N)CC(=O)O)C(=O)N[C@@H](CC(C)C)C(=O)NCC(=O)N[C@@H](Cc4ccccc4)C(=O)N[C@@H](Cc4ccc(C(=O)O)cc4)C(=O)N[C@@H](CCCNC(=N)N)C(=O)N[C@@H](CCCCN)C(=O)N2)NC(=O)[C@H](CSSC[C@@H](C(=O)N[C@@H](CCCCN)C(=O)N[C@@H](Cc2ccc(O)cc2)C(=O)N[C@H](C(=O)N[C@@H](Cc2ccccc2)C(N)=O)C(C)C)NC(=O)[C@H](Cc2c[nH]c4ccccc24)NC(=O)[C@H](CCCCN)NC(=O)[C@H](Cc2c[nH]cn2)NC(=O)[C@H]([C@@H](C)O)NC(=O)[C@H](CCCNC(=N)N)NC(=O)[C@H](CO)NC3=O)NC(=O)[C@H](CCCCN)NC(=O)[C@H](CC(=O)O)NC(=O)[C@H](CC(N)=O)NC(=O)[C@H](CC(=O)O)NC(=O)[C@@H]2CCCN2C1=O [SEQ ID NO: 293] | 13800 nM | 11100 nM | 15800 nM
